Consider five compounds from ChEMBL document CHEMBL3132787, “Polyhydroxylated pyrrolidine and 2-oxapyrrolizidine as glycosidase inhibitors” (Medchemcomm, 2013).

Alpha-galactosidase, sequence (Q42656 whole entry): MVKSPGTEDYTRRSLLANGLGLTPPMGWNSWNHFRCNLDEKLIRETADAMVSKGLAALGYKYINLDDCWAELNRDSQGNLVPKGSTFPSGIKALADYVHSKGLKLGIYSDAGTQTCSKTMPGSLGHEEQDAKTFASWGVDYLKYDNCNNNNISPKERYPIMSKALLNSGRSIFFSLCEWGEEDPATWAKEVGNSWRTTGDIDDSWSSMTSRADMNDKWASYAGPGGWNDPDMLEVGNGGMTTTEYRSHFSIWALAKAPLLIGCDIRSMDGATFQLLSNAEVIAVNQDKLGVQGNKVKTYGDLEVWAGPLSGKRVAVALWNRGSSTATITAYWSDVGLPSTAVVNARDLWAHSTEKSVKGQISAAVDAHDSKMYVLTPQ

For one assay, the system named is Canavalia ensiformis. The assay is described as follows: Inhibition of jack bean alpha-mannosidase using p-nitrophenyl glycoside as substrate assessed as residual activity at 1 mM after 25 mins by spectrophotometer analysis.
Consider `O=C(O)[C@@H]1C[C@H](O)[C@@H](CO)N1`, for which the Activity was 82%.
Take `O=C(NCCP(=O)(O)O)[C@@H]1C[C@H](O)[C@@H](CO)N1`: the Activity was 83.9%.
The same measure, in the same setting: the figure for `O=P(O)(O)OC[C@@H]1C[C@H](O)[C@@H](CO)N1` is 76.8%.
Consider `O=C1OC[C@@H]2C[C@H](O)[C@@H](CO)N12`, for which the Activity was found to be 72.2%.
On the same count and under the same terms, for `OC[C@@H]1C[C@H](O)[C@@H](CO)N1` the value was 102%.

The test system of the next assay is Prunus dulcis. The assay is described as follows: Inhibition of sweet almond beta-glucosidase using p-nitrophenyl glycoside as substrate assessed as residual activity at 1 mM after 25 mins by spectrophotometer analysis.
On to `O=C(O)[C@@H]1C[C@H](O)[C@@H](CO)N1`, for which the Activity is 115%.
On the same count and under the same terms, for `O=C(NCCP(=O)(O)O)[C@@H]1C[C@H](O)[C@@H](CO)N1` the value was 83.6%.
The same measure, in the same setting: for `O=P(O)(O)OC[C@@H]1C[C@H](O)[C@@H](CO)N1` the value was 96.1%; for `O=C1OC[C@@H]2C[C@H](O)[C@@H](CO)N12`, 75.7%; for `OC[C@@H]1C[C@H](O)[C@@H](CO)N1`, 1.7%.

In another assay the test system is Helix pomatia. The assay is described as follows: Inhibition of Helix pomatia beta-mannosidase using p-nitrophenyl glycoside as substrate assessed as residual activity at 1 mM after 25 mins by spectrophotometer analysis.
Take `O=C(O)[C@@H]1C[C@H](O)[C@@H](CO)N1`: the Activity came out at 99.3%.
Same read-out and setting: the figure for `O=C(NCCP(=O)(O)O)[C@@H]1C[C@H](O)[C@@H](CO)N1` is 93.7%.
Same read-out and setting: for `O=P(O)(O)OC[C@@H]1C[C@H](O)[C@@H](CO)N1` the value was 100%; for `O=C1OC[C@@H]2C[C@H](O)[C@@H](CO)N12`, 98.7%.
On to `OC[C@@H]1C[C@H](O)[C@@H](CO)N1`, for which the Activity amounted to 97%.

The next assay concerns Geobacillus stearothermophilus. The assay is described as follows: Inhibition of Bacillus stearothermophilus alpha-glucosidase using p-nitrophenyl glycoside as substrate assessed as residual activity at 1 mM after 25 mins by spectrophotometer analysis.
With `O=C(O)[C@@H]1C[C@H](O)[C@@H](CO)N1`, the Activity was 110%.
On the same count and under the same terms, the figure for `O=C(NCCP(=O)(O)O)[C@@H]1C[C@H](O)[C@@H](CO)N1` is 97.1%; for `O=P(O)(O)OC[C@@H]1C[C@H](O)[C@@H](CO)N1` it is 97%; for `O=C1OC[C@@H]2C[C@H](O)[C@@H](CO)N12` it is 39.1%.
Still for that read-out and setting: for `OC[C@@H]1C[C@H](O)[C@@H](CO)N1` the value was 12.8%.

A further assay deals with Beta-galactosidase (Escherichia coli) (UniProt Q8VNN2). The assay is described as follows: Inhibition of Escherichia coli beta-galactosidase using p-nitrophenyl glycoside as substrate assessed as residual activity at 1 mM after 25 mins by spectrophotometer analysis.
Beta-galactosidase (Escherichia coli), sequence (Q8VNN2 whole entry, looked up): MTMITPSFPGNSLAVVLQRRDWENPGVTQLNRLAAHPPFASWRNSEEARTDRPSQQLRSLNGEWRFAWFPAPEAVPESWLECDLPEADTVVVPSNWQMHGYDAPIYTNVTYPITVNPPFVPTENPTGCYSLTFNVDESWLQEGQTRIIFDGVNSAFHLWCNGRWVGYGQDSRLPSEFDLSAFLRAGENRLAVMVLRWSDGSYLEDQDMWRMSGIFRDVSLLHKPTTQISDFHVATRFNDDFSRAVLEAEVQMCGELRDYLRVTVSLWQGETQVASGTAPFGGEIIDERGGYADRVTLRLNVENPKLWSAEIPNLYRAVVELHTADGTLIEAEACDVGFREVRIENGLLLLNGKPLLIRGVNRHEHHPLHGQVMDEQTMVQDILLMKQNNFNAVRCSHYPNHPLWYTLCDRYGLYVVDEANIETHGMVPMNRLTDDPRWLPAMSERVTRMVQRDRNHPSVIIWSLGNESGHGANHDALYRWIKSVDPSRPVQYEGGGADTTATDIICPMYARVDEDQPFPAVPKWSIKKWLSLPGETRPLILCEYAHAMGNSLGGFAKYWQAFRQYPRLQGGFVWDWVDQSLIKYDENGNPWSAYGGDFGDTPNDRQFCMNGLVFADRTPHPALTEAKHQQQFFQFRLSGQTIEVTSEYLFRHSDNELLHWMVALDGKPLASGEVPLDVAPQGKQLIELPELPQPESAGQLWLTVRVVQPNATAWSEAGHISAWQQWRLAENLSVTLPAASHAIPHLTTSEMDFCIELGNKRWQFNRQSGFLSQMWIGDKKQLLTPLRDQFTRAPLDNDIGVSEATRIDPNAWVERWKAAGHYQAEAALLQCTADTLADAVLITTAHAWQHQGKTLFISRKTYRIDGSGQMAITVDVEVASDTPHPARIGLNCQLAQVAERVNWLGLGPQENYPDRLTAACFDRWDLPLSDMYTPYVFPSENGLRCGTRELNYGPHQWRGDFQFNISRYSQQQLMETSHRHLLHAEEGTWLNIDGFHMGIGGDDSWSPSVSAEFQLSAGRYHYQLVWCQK
`O=C(O)[C@@H]1C[C@H](O)[C@@H](CO)N1`: the Activity was 90.7%.
On the same count and under the same terms, the figure for `O=C(NCCP(=O)(O)O)[C@@H]1C[C@H](O)[C@@H](CO)N1` is 55.8%; for `O=P(O)(O)OC[C@@H]1C[C@H](O)[C@@H](CO)N1` it is 114%; for `O=C1OC[C@@H]2C[C@H](O)[C@@H](CO)N12` it is 109%.
Same read-out and setting: the figure for `OC[C@@H]1C[C@H](O)[C@@H](CO)N1` is 53.5%.

Target in another assay: not listed separately
Put plainly: Competitive inhibition of sweet almond beta-glucosidase using p-nitrophenyl glycoside as substrate by Lineweaver-Burk plot analysis. More on the design: species or system Prunus dulcis.
For `OC[C@@H]1C[C@H](O)[C@@H](CO)N1`, the Ki stood at 29.2 µM.

The target of a further assay is Alpha-galactosidase (Coffea arabica) (UniProt Q42656). The assay is described as follows: Inhibition of green coffee bean alpha-galactosidase using p-nitrophenyl glycoside as substrate assessed as residual activity at 1 mM after 25 mins by spectrophotometer analysis.
Alpha-galactosidase (Coffea arabica), sequence (Q42656 16-378 limits assumed): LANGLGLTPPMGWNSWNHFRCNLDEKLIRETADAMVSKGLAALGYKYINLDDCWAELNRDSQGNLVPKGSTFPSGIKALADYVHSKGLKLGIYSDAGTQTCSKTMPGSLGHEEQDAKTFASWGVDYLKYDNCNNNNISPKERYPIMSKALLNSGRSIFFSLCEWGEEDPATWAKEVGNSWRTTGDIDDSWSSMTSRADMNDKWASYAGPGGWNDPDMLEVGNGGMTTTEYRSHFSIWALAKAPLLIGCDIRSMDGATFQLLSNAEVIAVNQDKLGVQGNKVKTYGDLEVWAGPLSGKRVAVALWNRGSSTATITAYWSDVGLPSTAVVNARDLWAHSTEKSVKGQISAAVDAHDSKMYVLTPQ
Turning to `O=C(O)[C@@H]1C[C@H](O)[C@@H](CO)N1`, the Activity was 95.2%.
On the same count and under the same terms, for `O=C(NCCP(=O)(O)O)[C@@H]1C[C@H](O)[C@@H](CO)N1` the value was 107%; for `O=P(O)(O)OC[C@@H]1C[C@H](O)[C@@H](CO)N1`, 91.9%; for `O=C1OC[C@@H]2C[C@H](O)[C@@H](CO)N12`, 5.4%.
The same measure, in the same setting: for `OC[C@@H]1C[C@H](O)[C@@H](CO)N1` the value was 50.4%.

The next assay addresses Alpha-galactosidase (Coffea arabica, UniProt Q42656). Put plainly: Competitive inhibition of green coffee bean alpha-galactosidase using p-nitrophenyl glycoside as substrate by Lineweaver-Burk plot analysis.
`O=C1OC[C@@H]2C[C@H](O)[C@@H](CO)N12` displayed a Ki of 40.8 µM.

A word on the Ki: it is the dissociation constant of the complex between target and ligand, obtained from inhibition or displacement. The low end stands for tighter binding, the high end for weaker binding.
